Assay results reported in paper PMC9116130 (Biochemical pharmacology, 2020).
Read-outs that look alike come from different tables or passages of the source. Where a SMILES comes first, the peptide text is derived from it. Bridges are numbered along the chain shown (N, C = ends).

Tests used:
hNaV1.1 = hNaV1.1 (Homo sapiens, UniProt P35498); experiment: Two-electrode voltage-clamp on Xenopus laevis oocytes expressing NaV1.1
rNaV1.3 = rNaV1.3 (Rattus norvegicus, UniProt P08104); experiment: Two-electrode voltage-clamp on Xenopus laevis oocytes expressing NaV1.3
rNaV1.8 = rNaV1.8 (Rattus norvegicus, UniProt Q62968); experiment: Two-electrode voltage-clamp on Xenopus laevis oocytes expressing NaV1.8; settings: for inhibition at 100 µM: read-out: Maximum % inhibition NaV1.8
Chain of rNaV1.8 (Q62968 whole entry): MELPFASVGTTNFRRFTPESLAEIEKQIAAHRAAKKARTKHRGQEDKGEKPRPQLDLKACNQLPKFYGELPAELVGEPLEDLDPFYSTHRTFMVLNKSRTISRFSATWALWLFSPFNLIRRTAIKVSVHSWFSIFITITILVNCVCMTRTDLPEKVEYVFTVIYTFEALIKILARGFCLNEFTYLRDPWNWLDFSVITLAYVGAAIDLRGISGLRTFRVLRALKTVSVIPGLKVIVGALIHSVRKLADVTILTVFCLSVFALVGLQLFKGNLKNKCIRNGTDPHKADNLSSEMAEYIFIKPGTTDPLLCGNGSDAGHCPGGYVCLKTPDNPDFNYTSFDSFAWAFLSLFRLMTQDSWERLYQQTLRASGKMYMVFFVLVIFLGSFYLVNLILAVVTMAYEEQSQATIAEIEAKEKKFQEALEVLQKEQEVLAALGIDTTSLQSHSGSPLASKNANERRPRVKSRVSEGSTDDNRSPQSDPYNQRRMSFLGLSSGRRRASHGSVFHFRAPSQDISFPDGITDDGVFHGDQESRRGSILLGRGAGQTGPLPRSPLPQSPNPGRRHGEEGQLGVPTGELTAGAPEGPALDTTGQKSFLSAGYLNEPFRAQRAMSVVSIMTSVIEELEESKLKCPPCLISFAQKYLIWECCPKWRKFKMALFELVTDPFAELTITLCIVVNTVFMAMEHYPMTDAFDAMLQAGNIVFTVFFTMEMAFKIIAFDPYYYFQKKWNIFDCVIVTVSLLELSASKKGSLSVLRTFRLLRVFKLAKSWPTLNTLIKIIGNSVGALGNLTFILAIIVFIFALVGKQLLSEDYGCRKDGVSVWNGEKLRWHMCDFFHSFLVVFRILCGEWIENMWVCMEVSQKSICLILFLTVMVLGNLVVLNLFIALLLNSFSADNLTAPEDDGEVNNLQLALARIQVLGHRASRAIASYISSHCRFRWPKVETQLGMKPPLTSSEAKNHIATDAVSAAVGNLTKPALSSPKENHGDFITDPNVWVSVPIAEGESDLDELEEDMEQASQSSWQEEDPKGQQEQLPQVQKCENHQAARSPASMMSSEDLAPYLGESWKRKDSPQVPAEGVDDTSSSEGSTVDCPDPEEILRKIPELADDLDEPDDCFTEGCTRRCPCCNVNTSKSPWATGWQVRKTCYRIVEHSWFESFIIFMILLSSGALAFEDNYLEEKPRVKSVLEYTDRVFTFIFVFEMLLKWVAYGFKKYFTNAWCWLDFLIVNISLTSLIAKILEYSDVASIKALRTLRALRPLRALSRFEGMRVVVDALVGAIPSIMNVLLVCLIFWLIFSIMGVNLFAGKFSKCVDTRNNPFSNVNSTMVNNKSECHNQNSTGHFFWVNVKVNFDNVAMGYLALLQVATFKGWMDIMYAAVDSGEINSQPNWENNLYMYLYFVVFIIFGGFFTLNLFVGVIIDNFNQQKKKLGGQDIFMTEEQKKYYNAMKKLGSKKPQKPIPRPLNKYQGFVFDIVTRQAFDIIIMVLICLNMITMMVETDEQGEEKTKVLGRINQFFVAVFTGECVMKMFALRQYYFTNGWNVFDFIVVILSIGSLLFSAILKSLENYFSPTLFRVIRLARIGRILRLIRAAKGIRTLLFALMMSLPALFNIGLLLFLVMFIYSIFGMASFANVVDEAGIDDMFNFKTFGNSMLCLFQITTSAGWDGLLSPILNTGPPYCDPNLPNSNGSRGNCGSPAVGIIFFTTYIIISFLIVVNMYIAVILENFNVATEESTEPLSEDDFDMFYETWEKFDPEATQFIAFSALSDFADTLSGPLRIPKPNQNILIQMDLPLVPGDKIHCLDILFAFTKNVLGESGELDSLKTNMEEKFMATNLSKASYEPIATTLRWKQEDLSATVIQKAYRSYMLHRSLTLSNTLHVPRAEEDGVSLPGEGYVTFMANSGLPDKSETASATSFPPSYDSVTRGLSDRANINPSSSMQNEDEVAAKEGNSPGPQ

mNaV1.6 = mNaV1.6 (Mus musculus, UniProt Q9WTU3); experiment: Two-electrode voltage-clamp on Xenopus laevis oocytes expressing NaV1.6; settings: for inhibition at 100 µM: read-out: Maximum % inhibition NaV1.6, peptide at 100 μM
hNaV1.5 = hNaV1.5 (Homo sapiens, UniProt Q14524); experiment: Two-electrode voltage-clamp on Xenopus laevis oocytes expressing NaV1.5; settings: for inhibition at 100 µM: read-out: Maximum % inhibition NaV1.5
rNaV1.7 = rNaV1.7 (Rattus norvegicus, UniProt O08562); experiment: Two-electrode voltage-clamp on Xenopus laevis oocytes expressing NaV1.7
rNaV1.4 = rNaV1.4 (Rattus norvegicus, UniProt P15390); experiment: Two-electrode voltage-clamp on Xenopus laevis oocytes expressing NaV1.4; settings: for inhibition at 100 µM: read-out: Maximum % inhibition NaV1.4, peptide at 100 μM; for Maximum % inhibition NaV1.4: peptide at 100 μM, 100 µM
Chain of rNaV1.4 (P15390 whole entry): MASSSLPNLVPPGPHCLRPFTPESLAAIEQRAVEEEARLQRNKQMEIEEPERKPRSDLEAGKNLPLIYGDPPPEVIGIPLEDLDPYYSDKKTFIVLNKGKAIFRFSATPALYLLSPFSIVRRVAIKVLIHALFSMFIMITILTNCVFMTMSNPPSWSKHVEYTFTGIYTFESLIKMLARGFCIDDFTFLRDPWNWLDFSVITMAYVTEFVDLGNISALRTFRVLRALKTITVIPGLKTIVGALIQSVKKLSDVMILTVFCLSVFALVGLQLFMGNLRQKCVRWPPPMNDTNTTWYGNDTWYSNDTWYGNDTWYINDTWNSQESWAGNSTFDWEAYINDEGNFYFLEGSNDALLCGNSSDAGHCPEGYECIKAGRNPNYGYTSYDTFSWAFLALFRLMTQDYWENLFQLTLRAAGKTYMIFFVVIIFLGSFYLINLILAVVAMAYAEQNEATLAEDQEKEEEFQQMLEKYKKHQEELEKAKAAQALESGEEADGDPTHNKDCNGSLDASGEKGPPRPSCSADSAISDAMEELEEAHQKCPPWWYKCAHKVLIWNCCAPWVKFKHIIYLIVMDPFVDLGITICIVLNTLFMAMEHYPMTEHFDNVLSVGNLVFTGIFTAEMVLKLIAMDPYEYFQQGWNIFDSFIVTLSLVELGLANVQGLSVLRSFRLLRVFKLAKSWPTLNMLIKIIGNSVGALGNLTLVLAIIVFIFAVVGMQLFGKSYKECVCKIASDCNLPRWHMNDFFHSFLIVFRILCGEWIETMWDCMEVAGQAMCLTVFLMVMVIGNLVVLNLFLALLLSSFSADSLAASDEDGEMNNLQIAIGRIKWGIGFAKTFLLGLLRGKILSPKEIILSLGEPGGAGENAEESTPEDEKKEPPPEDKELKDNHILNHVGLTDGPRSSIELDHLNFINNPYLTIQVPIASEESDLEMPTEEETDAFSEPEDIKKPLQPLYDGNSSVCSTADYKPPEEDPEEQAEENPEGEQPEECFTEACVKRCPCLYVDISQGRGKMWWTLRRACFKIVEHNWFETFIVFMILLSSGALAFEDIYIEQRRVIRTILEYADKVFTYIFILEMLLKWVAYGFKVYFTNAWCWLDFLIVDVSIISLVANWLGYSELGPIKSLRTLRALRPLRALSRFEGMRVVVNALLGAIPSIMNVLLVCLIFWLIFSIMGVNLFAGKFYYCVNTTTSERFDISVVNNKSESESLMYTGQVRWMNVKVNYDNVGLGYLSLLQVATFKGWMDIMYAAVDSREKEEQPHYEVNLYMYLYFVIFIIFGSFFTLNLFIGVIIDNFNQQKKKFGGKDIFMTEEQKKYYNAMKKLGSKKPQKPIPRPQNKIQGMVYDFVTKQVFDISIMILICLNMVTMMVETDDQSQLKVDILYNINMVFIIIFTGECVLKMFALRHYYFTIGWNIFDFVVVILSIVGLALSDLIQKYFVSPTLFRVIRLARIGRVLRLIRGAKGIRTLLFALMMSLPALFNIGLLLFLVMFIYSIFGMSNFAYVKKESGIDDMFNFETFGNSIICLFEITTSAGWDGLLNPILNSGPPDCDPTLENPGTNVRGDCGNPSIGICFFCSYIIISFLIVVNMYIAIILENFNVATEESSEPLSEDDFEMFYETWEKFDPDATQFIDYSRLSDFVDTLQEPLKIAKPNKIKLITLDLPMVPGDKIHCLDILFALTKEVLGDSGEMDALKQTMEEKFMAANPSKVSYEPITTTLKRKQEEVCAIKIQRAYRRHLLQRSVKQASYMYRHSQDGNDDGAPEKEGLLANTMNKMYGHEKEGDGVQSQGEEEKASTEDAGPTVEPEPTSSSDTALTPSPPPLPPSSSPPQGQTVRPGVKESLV
Chain of rNaV1.4 (Q00954 19-218, further chain): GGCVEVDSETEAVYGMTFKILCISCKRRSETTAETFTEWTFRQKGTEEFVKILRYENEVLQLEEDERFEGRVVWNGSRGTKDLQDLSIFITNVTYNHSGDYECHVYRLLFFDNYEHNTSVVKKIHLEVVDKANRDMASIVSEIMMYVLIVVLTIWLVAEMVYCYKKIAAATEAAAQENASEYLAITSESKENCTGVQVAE

rNaV1.2 = rNaV1.2 (Rattus norvegicus, UniProt P04775); experiment: Two-electrode voltage-clamp on Xenopus laevis oocytes expressing NaV1.2; settings: for inhibition at 100 µM: read-out: Maximum % inhibition NaV1.2, peptide at 100 μM

SMILES | IC50 (hNaV1.1) | IC50 (rNaV1.3) | IC50 (rNaV1.8) | inhibition at 100 µM (rNaV1.8) | IC50 (mNaV1.6) | IC50 (mNaV1.6; read-out: IC50 NaV1.6 (Table 4), n > 5, ±SD) | inhibition at 100 µM (mNaV1.6) | IC50 (hNaV1.5) | inhibition at 100 µM (hNaV1.5) | IC50 (rNaV1.7) | IC50 (rNaV1.4) | inhibition at 100 µM (rNaV1.4) | IC50 (rNaV1.2) | inhibition at 100 µM (rNaV1.2) | Maximum % inhibition NaV1.6 (mNaV1.6; peptide at 100 μM, 100 µM) | Maximum % inhibition NaV1.4 (rNaV1.4) | Maximum % inhibition NaV1.2 (rNaV1.2; peptide at 100 μM, 100 µM)
C[C@@H]1NC(=O)[C@H](Cc2c[nH]c3ccccc23)NC(=O)[C@H](CCCNC(=N)N)NC(=O)[C@H](CCCNC(=N)N)NC(=O)[C@@H](N)CSSC[C@@H](C(N)=O)NC(=O)[C@H](CCCNC(=N)N)NC(=O)[C@H](CC(N)=O)NC(=O)[C@H](Cc2c[nH]c3ccccc23)NC(=O)[C@H](CCC(=O)O)NC1=O [PnCS1[R6E], CRRWAEWNRC ^*] (H-CRRWAEWNRC-NH2; disulfide 1-10) | > 100 µM | > 100 µM | > 100 µM | 0% | > 100 µM | > 100 µM | 41% | > 100 µM | 19% | > 100 µM | > 100 µM | 0% | > 100 µM | 49% | – | – | –
C[C@@H]1NC(=O)[C@H](C)NC(=O)[C@H](Cc2c[nH]c3ccccc23)NC(=O)[C@H](CCCNC(=N)N)NC(=O)[C@H](CCCNC(=N)N)NC(=O)[C@@H](N)CSSC[C@@H](C(N)=O)NC(=O)[C@H](CCCNC(=N)N)NC(=O)[C@H](CC(N)=O)NC(=O)[C@H](Cc2c[nH]c3ccccc23)NC1=O [PnCS1[R6A], CRRWAAWNRC ^*] (H-CRRWAAWNRC-NH2; disulfide 1-10) | – | – | > 100 µM | 0% | 0.9 ± 0.2 µM | – | > 95% | 7.6 ± 2.2 µM | 78% | – | 0.5 ± 0.2 µM | > 95% | 9.2 ± 1.1 µM | 73% | 96% | 90% | –
C[C@@H]1NC(=O)[C@H](Cc2c[nH]c3ccccc23)NC(=O)[C@H](CCCNC(=N)N)NC(=O)[C@H](C)NC(=O)[C@@H](N)CSSC[C@@H](C(N)=O)NC(=O)[C@H](CCCNC(=N)N)NC(=O)[C@H](CC(N)=O)NC(=O)[C@H](Cc2c[nH]c3ccccc23)NC(=O)[C@H](CCCNC(=N)N)NC1=O [PnCS1[R2A], CARWARWNRC ^*] (H-CARWARWNRC-NH2; disulfide 1-10) | – | – | > 100 µM | 0% | 1.6 ± 0.5 µM | – | 71% | 1.7 ± 0.7 µM | 68% | – | 1.4 ± 0.4 µM | > 95% | 2.9 ± 0.5 µM | 84% | – | 96% | –
C[C@@H]1NC(=O)[C@H](Cc2c[nH]c3ccccc23)NC(=O)[C@H](C)NC(=O)[C@H](CCCNC(=N)N)NC(=O)[C@@H](N)CSSC[C@@H](C(N)=O)NC(=O)[C@H](CCCNC(=N)N)NC(=O)[C@H](CC(N)=O)NC(=O)[C@H](Cc2c[nH]c3ccccc23)NC(=O)[C@H](CCCNC(=N)N)NC1=O [PnCS1[R3A], CRAWARWNRC ^*] (H-CRAWARWNRC-NH2; disulfide 1-10) | – | – | > 100 µM | 0% | 1.9 ± 0.4 µM | – | 87% | > 100 µM | 51% | – | 1.6 ± 0.5 µM | 89% | 1.8 ± 0.3 µM | 86% | – | – | –
C[C@@H]1NC(=O)[C@H](Cc2c[nH]c3ccccc23)NC(=O)[C@H](CCCNC(=N)N)NC(=O)[C@H](CCCNC(=N)N)NC(=O)[C@@H](N)CSSC[C@@H](C(N)=O)NC(=O)[C@H](CCCNC(=N)N)NC(=O)[C@H](CC(N)=O)NC(=O)[C@H](CCC(=O)O)NC(=O)[C@H](CCCNC(=N)N)NC1=O [PnCS1[W7E], CRRWARENRC ^*] (H-CRRWARENRC-NH2; disulfide 1-10) | – | – | > 100 µM | 0% | > 100 µM | – | 27% | > 100 µM | 33% | – | > 100 µM | 42% | > 100 µM | 21% | – | – | –
C[C@@H]1NC(=O)[C@H](Cc2c[nH]c3ccccc23)NC(=O)[C@H](CCCNC(=N)N)NC(=O)[C@H](CCC(=O)O)NC(=O)[C@@H](N)CSSC[C@@H](C(N)=O)NC(=O)[C@H](CCCNC(=N)N)NC(=O)[C@H](CC(N)=O)NC(=O)[C@H](Cc2c[nH]c3ccccc23)NC(=O)[C@H](CCCNC(=N)N)NC1=O [PnCS1[R2E], CERWARWNRC ^*] (H-CERWARWNRC-NH2; disulfide 1-10) | – | – | > 100 µM | 0% | > 100 µM | – | 5% | > 100 µM | 27% | – | > 100 µM | 11% | > 100 µM | 41% | – | – | –
C[C@@H]1NC(=O)[C@H](CCC(=O)O)NC(=O)[C@H](CCCNC(=N)N)NC(=O)[C@H](CCCNC(=N)N)NC(=O)[C@@H](N)CSSC[C@@H](C(N)=O)NC(=O)[C@H](CCCNC(=N)N)NC(=O)[C@H](CC(N)=O)NC(=O)[C@H](Cc2c[nH]c3ccccc23)NC(=O)[C@H](CCCNC(=N)N)NC1=O [PnCS1[W4E], CRREARWNRC ^*] (H-CRREARWNRC-NH2; disulfide 1-10) | – | – | > 100 µM | 0% | 14.8 ± 3.9 µM | – | 67% | > 100 µM | 34% | – | 12.8 ± 4.1 µM | 59% | 13.2 ± 5.2 µM | 72% | – | – | –
C[C@@H]1NC(=O)[C@H](Cc2c[nH]c3ccccc23)NC(=O)[C@H](CCCCN)NC(=O)[C@H](CCCNC(=N)N)NC(=O)[C@@H](N)CSSC[C@@H](C(N)=O)NC(=O)[C@H](CCCNC(=N)N)NC(=O)[C@H](CC(N)=O)NC(=O)[C@H](Cc2c[nH]c3ccccc23)NC(=O)[C@H](CCCNC(=N)N)NC1=O [PnCS1[R3K], CRKWARWNRC ^*] (H-CRKWARWNRC-NH2; disulfide 1-10) | – | – | > 100 µM | 0% | 0.8 ± 0.3 µM | – | 86% | 2.7 ± 0.6 µM | 94% | – | 0.6 ± 0.3 µM | 92% | 0.8 ± 0.3 µM | > 95% | – | – | 96%
C[C@@H]1NC(=O)[C@H](Cc2c[nH]c3ccccc23)NC(=O)[C@H](CCCNC(=N)N)NC(=O)[C@H](CCCCN)NC(=O)[C@@H](N)CSSC[C@@H](C(N)=O)NC(=O)[C@H](CCCNC(=N)N)NC(=O)[C@H](CC(N)=O)NC(=O)[C@H](Cc2c[nH]c3ccccc23)NC(=O)[C@H](CCCNC(=N)N)NC1=O [PnCS1[R2K], CKRWARWNRC ^*] (H-CKRWARWNRC-NH2; disulfide 1-10) | – | – | > 100 µM | 0% | 0.6 ± 0.2 µM | – | 85% | 2.5 ± 0.5 µM | 82% | – | 0.8 ± 0.3 µM | 93% | 1.1 ± 0.5 µM | 92% | – | – | –
N=C(N)NCCC[C@@H]1NC(=O)[C@H](CC(N)=O)NC(=O)[C@H](Cc2c[nH]c3ccccc23)NC(=O)[C@H](CCCNC(=N)N)NC(=O)[C@H](CCCCN)NC(=O)[C@H](Cc2c[nH]c3ccccc23)NC(=O)[C@H](CCCNC(=N)N)NC(=O)[C@H](CCCNC(=N)N)NC(=O)[C@@H](N)CSSC[C@@H](C(N)=O)NC1=O [PnCS1[A5K], CRRWKRWNRC ^*] (H-CRRWKRWNRC-NH2; disulfide 1-10) | – | – | > 100 µM | 0% | 0.7 ± 0.3 µM | – | 93% | 2.1 ± 0.2 µM | 92% | – | 1.9 ± 0.8 µM | 91% | 1.2 ± 0.4 µM | 84% | – | – | –
C[C@@H]1NC(=O)[C@H](Cc2c[nH]c3ccccc23)NC(=O)[C@H](CCCNC(=N)N)NC(=O)[C@H](CCCNC(=N)N)NC(=O)[C@@H](N)CSSC[C@@H](C(N)=O)NC(=O)[C@H](CCCNC(=N)N)NC(=O)[C@H](CC(N)=O)NC(=O)[C@H](CCCCN)NC(=O)[C@H](CCCNC(=N)N)NC1=O [PnCS1[W7K], CRRWARKNRC ^*] (H-CRRWARKNRC-NH2; disulfide 1-10) | – | – | > 100 µM | 0% | 8.2 ± 0.6 µM | – | 82% | 3 ± 0.7 µM | 90% | – | 1.7 ± 0.5 µM | 87% | 2.8 ± 0.5 µM | 71% | – | – | –
C[C@@H]1NC(=O)[C@H](Cc2c[nH]c3ccccc23)NC(=O)[C@H](CCCNC(=N)N)NC(=O)[C@H](CCCNC(=N)N)NC(=O)[C@@H](N)CSSC[C@@H](C(N)=O)NC(=O)[C@H](CCC(=O)O)NC(=O)[C@H](CC(N)=O)NC(=O)[C@H](Cc2c[nH]c3ccccc23)NC(=O)[C@H](CCCNC(=N)N)NC1=O [PnCS1[R9E], CRRWARWNEC ^*] (H-CRRWARWNEC-NH2; disulfide 1-10) | – | – | > 100 µM | 0% | > 100 µM | – | 11% | > 100 µM | 40% | – | > 100 µM | 0% | > 100 µM | 49% | – | – | –
